We go through 3 molecules from patent publication US20230203041A1, “ANTAGONISTS OF THE ADENOSINE A2A RECEPTOR” (AdoRx Therapeutics Limited, priority 2020, published 2023).

The conditions of data set [1]: clinical trials, preliminary data, cited from earlier work.
In data set [2] the target is T1, human Adenosine A2a receptor (Homo sapiens, UniProt P29274).
T1 construct: expressed in transfected cells; host or cells: CHO cell membranes
Briefly: Adenosine receptor TR-FRET binding assay (CA200645 displacement), A2a. Conditions: 100 nM CA200645, CHO cell membranes, 2 hours at room temperature.

Data set [3] addresses T2, human Adenosine A2b receptor (Homo sapiens, UniProt P29275).
T2 construct: expressed in transfected cells; host or cells: CHO cell membranes
T2 sequence (P29275 1-332): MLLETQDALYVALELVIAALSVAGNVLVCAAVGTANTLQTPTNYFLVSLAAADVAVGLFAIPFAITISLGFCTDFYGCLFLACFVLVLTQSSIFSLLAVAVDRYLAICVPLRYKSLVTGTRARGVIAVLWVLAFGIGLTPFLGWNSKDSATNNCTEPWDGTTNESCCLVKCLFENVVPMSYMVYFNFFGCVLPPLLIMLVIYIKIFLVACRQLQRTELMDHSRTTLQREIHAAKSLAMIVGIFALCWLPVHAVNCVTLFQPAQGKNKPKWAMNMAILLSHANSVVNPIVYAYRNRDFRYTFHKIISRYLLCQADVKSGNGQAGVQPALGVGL
Briefly: Adenosine receptor TR-FRET binding assay (CA200645 displacement), A2b. The following applies: 30 nM CA200645, CHO cell membranes, 2 hours at room temperature.

For another data set, the system named is human PBMCs. Briefly: CD3/CD28 stimulated IL-2 release NECA reversal assay in human PBMCs.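 Also: dose-response as % inhibition where 100% equals no-NECA control wells with CD3/CD28.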 It counts as cell-based. The following applies: PBMC, CD3/CD28 antibody stimulated, 1 uM NECA, 24 hours, IL-2 in culture supernatant. A digest of the protocol: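 PBMCs from citrated donor blood, 50,000 cells/well on plate-bound CD3 antibody (1 ug/ml), with 1 ug/ml CD28 antibody, 1 uM NECA and antagonist at 0.003-10 μM final. After 24 h at 37° C, supernatant IL-2 was measured by MSD immunoassay.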

The subject of data set [4] is CD8+ T cells in human whole blood. Put plainly: Measurement of pCREB in CD8+ T cells in human whole blood. The format is cell-based. The following applies: T-cell, 1 h; heparinised human whole blood, rolipram, 3 μM NECA, 60 min, phospho-CREB in CD8+ T cells by FACS. In a few lines:
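Heparinised human whole blood preincubated 20 min at 37 °C with serially diluted A2a antagonists plus rolipram, then stimulated 60 min with 3 μM NECA (final). After fixation and RBC lysis, permeabilized leukocytes stained for phospho-CREB and CD8; pCREB in CD8+ T cells read by flow cytometry.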

Data set [5] deals with T3, human Adenosine A1 receptor (Homo sapiens, UniProt P30542).
T3 sequence (P30542 1-326): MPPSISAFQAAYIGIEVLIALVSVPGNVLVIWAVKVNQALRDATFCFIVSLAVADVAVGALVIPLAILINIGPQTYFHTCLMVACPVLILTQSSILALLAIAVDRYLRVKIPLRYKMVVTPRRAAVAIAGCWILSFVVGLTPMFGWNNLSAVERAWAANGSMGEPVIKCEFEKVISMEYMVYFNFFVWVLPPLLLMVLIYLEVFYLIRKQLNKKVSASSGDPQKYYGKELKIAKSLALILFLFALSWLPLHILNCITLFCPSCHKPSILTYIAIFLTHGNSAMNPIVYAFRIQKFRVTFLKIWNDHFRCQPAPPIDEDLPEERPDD
Briefly: Adenosine receptor TR-FRET binding assay (CA200645 displacement), A1.

Data set [6] has as its target T4, human Adenosine A3 receptor (Homo sapiens, UniProt P0DMS8).
T4 sequence (P0DMS8 1-318): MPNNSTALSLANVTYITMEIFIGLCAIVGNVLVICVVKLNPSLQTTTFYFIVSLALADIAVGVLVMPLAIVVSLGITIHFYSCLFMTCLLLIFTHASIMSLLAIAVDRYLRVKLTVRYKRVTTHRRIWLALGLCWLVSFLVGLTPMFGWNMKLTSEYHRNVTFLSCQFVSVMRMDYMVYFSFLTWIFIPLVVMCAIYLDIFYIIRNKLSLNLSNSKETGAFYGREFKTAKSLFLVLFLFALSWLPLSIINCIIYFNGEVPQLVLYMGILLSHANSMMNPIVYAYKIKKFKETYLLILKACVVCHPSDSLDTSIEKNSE
Put plainly: Adenosine receptor TR-FRET binding assay (CA200645 displacement), A3.
Procedure: All FRET binding experiments were conducted at room temperature in white 384-well plates, in assay binding buffer containing 1×LabMed (Cisbio, France), 100 μg/mL saponin, 1% DMSO and 0.02% pluronic acid. Binding of the fluorescently labelled Adenosine receptor antagonist XAC (CA200645, FRET acceptor) to terbium-labelled A1, A2a, A2b and A3 adenosine receptors (FRET donors) was detected by time-resolved FRET due to the close proximity of the donor and acceptor in a binding event. To investigate the ability of unlabelled test compounds to bind to Adenosine A1, A2a, A2b and A3 receptors, dose response curves were constructed that determined the ability of a range of concentrations to inhibit the binding of 30 nM CA200645 to the A2b receptor and 100 nM CA200645 to the A1, A2a, and A3 receptor.
Serial dilution (1:3 dilutions) of test compounds in neat DMSO and transfer of a 400 nL sample of test compound into the assay plate was carried out using the Mosquito (TTP Labtech, UK). The compound samples were incubated for 2 hours at room temperature with a fixed concentration of CA200645 defined for each receptor (see above) and CHO cell membranes containing the human Adenosine A1 (0.5 μg/well), A2a (0.3 μg/well), A2b (1 μg/well) or A3 (1 μg/well) receptor in 40 μL of assay buffer. Total and non-specific binding of CA200645 was determined in the absence and presence of 10 μM XAC, respectively. Following 2 hours incubation, the level of CA200645 binding was detected on a Pherastar FSX (BMG Labtech, Germany) using standard TR-FRET settings. The terbium donor was excited with three laser flashes at a wavelength of 337 nm, and donor and acceptor emission was detected at 620 nm and 665 nm wavelengths, respectively. FRET ratios were obtained by multiplying the acceptor/donor ratio value by 10,000. Specific binding was determined by subtracting the non-specific binding FRET ratio from the total binding FRET ratio. Compound IC50 curves were analysed using GraphPad Prism 7.0 (GraphPad, USA) and Ki affinity values were determined from the obtained IC50 values using the method of Cheng and Prusoff.

Data set [7] has as its target programmed death receptor-1 (PD-1) (Homo sapiens, UniProt Q15116). The following applies: cited from earlier work.
The next data set relates to solid tumors. Conditions: Rutkowski et al. 2019; cited from earlier work.

programmed death receptor-1 (PD-1), sequence (Q15116 25-288): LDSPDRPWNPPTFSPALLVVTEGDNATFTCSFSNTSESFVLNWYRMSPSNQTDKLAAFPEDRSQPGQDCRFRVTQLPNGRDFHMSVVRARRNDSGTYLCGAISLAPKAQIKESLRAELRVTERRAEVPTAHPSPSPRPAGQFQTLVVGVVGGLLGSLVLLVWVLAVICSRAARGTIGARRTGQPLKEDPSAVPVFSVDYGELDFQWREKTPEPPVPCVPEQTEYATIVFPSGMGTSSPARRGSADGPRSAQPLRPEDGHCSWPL
T1 sequence (P29274 whole entry): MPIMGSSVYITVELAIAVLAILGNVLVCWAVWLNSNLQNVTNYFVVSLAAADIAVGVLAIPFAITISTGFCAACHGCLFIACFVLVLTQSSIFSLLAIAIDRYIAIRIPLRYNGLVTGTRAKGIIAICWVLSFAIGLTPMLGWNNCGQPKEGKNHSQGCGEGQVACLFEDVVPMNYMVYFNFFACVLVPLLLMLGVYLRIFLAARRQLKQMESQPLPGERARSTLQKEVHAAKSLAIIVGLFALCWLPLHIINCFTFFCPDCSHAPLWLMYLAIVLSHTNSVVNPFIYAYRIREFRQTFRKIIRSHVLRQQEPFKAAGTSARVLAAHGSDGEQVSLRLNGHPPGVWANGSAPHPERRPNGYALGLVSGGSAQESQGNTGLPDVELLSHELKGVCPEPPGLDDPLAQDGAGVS

Take `Cc1ccc(-c2nc(N)nc3c2nnn3Cc2cccc(CO[C@H]3CCOC3)n2)o1` [CPI-444]: the tolerability result in data set [1] (monotherapy and combination with atezolizumab) is “well tolerated”. Moreover, in [1] (early indications), the “CD8+ T infiltration into tumour tissue” value was “enhancing CD8+ T infiltration into tumour tissue” and the tumour size entry is recorded as “reducing tumour size”.

As for `CC(=O)N1CCC(Nc2ccn3nc(-c4cccc(C#N)c4)c(-c4cc(C)nc(C)c4)c3n2)CC1` [Example 105.1, 3-[5-[(1-Acetyl-4-piperidyl)amino]-3-(2,6-dimethyl-4-pyridyl)pyrazolo[1,5-a]pyrimidin-2-yl]benzonitrile], the Ki is 8 nM in data set [2], 50 nM in [3], 692 nM in data set [5] and over 1000 nM in [6]. Further, the figures for the IC50 (in the data set on human PBMCs; in data set [4]) were 33 nM and 890 nM, respectively.

Consider “Cetrelimab: a fully human immunoglobulin (Ig) G4 kappa monoclonal antibody that binds to programmed death receptor-1 (PD-1) with high affinity and specificity”, for which the “binding to PD-1” value in data set [7] is “high affinity and specificity”. The “activity in solid tumors” value in the data set on solid tumors was “activity in solid tumors”.
